In ChEMBL document CHEMBL3769390, “Inhibitors of the Antiapoptotic Myeloid Cell Leukemia-1 (Mcl-1) May Provide Effective Treatment for Cancer” (ACS Med Chem Lett, 2015):

Experiments:
[1] = molecular target: T1, Induced myeloid leukemia cell differentiation protein Mcl-1 (Homo sapiens, UniProt Q07820); assay: Inhibition of recombinant Mcl-1 (residues 172-327) (unknown origin) using FITC-AHx-EARIAQELRRIGDEFNETYTR-NH2 as substrate after 90 mins by fluorescence polarization anisotropy competition assay
[2] = molecular target: T1, Induced myeloid leukemia cell differentiation protein Mcl-1; assay: Inhibition of recombinant Mcl-1 (residues 172-327) (unknown origin) using FITC-AHx-GQVGRQLAIIGDDINR-NH2 as substrate after 90 mins by fluorescence polarization anisotropy competition assay
[3] = Inhibition of Bcl-2 (residues i_207 A96T/G110R, delta 35-91, replaced with Bcl-xL35-50) (unknown origin) using FITC-AHx-GQVGRQLAIIGDDINR-NH2 as substrate after 90 mins by fluorescence polarization anisotropy competition assay; parameters: species or system Homo sapiens
[4] = Inhibition of Bcl-xL (residues 1-209, loop 45 to 86 deleted) (unknown origin) using FITC-AHx-GQVGRQLAIIGDDINR-NH2 as substrate after 90 mins by fluorescence polarization anisotropy competition assay; parameters: species or system Homo sapiens
[5] = Antiproliferative activity against human ALMC1 cells after 72 hrs by Cell TiterGlo assay; type: functional, cell-based; details: ALMC1, 72 h
[6] = Antiproliferative activity against human ALMC2 cells after 72 hrs by Cell TiterGlo assay; type: functional, cell-based; details: ALMC2, 72 h
[7] = Antiproliferative activity against human NCI-H929 cells after 72 hrs by Cell TiterGlo assay; type: functional, cell-based; details: NCI-H929, 72 h
[8] = Antiproliferative activity against human OPM2 cells after 72 hrs by Cell TiterGlo assay; type: functional, cell-based; details: OPM-2, 72 h
K562 = assay: Antiproliferative activity against human K562 cells after 72 hrs by Cell TiterGlo assay; type: functional, cell-based; details: K562, 72 h

T1 sequence (Q07820 whole entry, the tested form may be a part): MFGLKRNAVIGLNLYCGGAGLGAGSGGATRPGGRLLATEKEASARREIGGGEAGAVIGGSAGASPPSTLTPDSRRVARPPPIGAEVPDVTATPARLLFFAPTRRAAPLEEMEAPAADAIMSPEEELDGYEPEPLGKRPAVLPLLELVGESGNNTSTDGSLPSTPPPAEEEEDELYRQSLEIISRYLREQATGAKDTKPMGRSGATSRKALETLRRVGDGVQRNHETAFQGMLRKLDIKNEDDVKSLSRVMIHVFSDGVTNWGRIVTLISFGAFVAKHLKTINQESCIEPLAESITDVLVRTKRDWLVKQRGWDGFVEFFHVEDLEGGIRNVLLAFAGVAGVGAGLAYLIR

| Structure (SMILES) | Ki [1] [µM] | Ki [2] [µM] | Ki [3] [µM] | Ki [4] [µM] | IC50 (K562) [µM] | IC50 [5] [µM] | IC50 [6] [µM] | IC50 [7] [µM] | IC50 [8] [µM] |
| --- | --- | --- | --- | --- | --- | --- | --- | --- | --- |
| Cc1cc(OCCCc2c3n(c4c(-c5c(C)nn(C)c5C)c(Cl)ccc24)CCCN(c2cccc(C(=O)O)c2)C3=O)cc(C)c1Cl | – | – | – | 1.9 | 23.2 | 12 | 20.8 | 6.3 | – |
| Cc1cc(OCCCc2c(C(=O)NC(C)(C)C)[nH]c3ccccc23)cc(C)c1Cl | 1 | – | – | – | – | – | – | – | – |
| Cc1cc(OCCCc2c(C(=O)Nc3ccc(C#N)cc3)[nH]c3c(-c4c(C)nn(C)c4C)c(Cl)ccc23)cc(C)c1Cl | 0.051 | – | – | – | – | – | – | – | – |

More lines, main results first:

| Ki [1] [µM] | Ki [2] [µM] | Ki [3] [µM] | Ki [4] [µM] | IC50 (K562) [µM] | Structure (SMILES) | IC50 [5] [µM] | IC50 [6] [µM] | IC50 [7] [µM] | IC50 [8] [µM] |
| --- | --- | --- | --- | --- | --- | --- | --- | --- | --- |
| < 0.05 | < 0.007 | 6.44 | 2.2 | 40 | Cc1cc(OCCCc2c3n(c4c(-c5c(C)nn(C)c5C)cccc24)CCN(Cc2cccc(C(=O)O)c2)C3=O)cc(C)c1Cl | 13.1 | 33.9 | 15 | 16.3 |
| < 0.05 | – | > 100 | 3.54 | – | Cc1cc(OCCCc2c(C(=O)NCc3cc(C(=O)O)n(C)c3)[nH]c3c(-c4c(C)nn(C)c4C)cccc23)cc(C)c1Cl | – | – | – | – |
| – | – | 27 | 7.9 | – | Cc1cc(OCCCc2c(C(=O)NCc3cc(C(=O)O)ccn3)[nH]c3c(-c4c(C)nn(C)c4C)cccc23)cc(C)c1Cl | – | – | – | – |
